Assay results from patent US8163727B2, “Biphenyloxyacetic acid derivatives for the treatment of respiratory disease” (AstraZeneca AB, priority 2004, dated 2012).

Tests used:
CRTh2 = molecular target: T1, CRTh2 (Homo sapiens, UniProt Q9Y5Y4); test: Ligand binding assay ([3H]PGD2 SPA on membranes of HEK cells expressing rhCRTh2/Gα16); conditions: [3H]PGD2 displacement, HEK cell membranes containing CRTh2; read-out: pIC50 value (converted)
T1 construct: expressed in transfected cells; host or cells: HEK cells (membrane preparation)
T1 sequence (Q9Y5Y4 1-395): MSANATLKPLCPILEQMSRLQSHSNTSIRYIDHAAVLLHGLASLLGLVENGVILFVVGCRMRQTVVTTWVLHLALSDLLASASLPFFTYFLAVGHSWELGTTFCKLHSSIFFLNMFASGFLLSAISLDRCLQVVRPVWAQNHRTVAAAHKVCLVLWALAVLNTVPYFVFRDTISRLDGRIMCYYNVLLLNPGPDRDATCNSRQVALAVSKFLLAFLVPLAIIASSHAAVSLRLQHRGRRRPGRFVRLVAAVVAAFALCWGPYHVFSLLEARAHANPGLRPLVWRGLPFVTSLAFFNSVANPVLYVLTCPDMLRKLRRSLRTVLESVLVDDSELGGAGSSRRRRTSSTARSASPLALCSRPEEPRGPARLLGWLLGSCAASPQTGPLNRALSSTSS
Experimental: [^3H]PGD2 was purchased from Perkin Elmer Life Sciences with a specific activity of 100-210 Ci/mmol. All other chemicals were of analytical grade.
HEK cells expressing rhCRTh2/Gα16 were routinely maintained in DMEM containing 10% Foetal Bovine Serum (HyClone), 1 mg/ml geneticin, 2 mM L-glutamine and 1% non-essential amino acids. For the preparation of membranes, the adherent transfected HEKcells were grown to confluence in two layer tissue culture factories (Fisher, catalogue number TKT-170-070E). Maximal levels of receptor expression were induced by addition of […] sodium butyrate for the last 18 hours of culture. The adherent cells were washed once with phosphate buffered saline (PBS, 50 ml per cell factory) and detached by the addition of 50 ml per cell factory of ice-cold membrane homogenisation buffer [20 mM HEPES (pH 7.4), 0.1 mM dithiothreitol, 1 mM EDTA, 0.1 mM phenyl methyl sulphonyl fluoride and 100 μg/ml bacitracin]. Cells were pelleted by centrifugation at 220×g for 10 minutes at 4° C., re-suspended in half the original volume of fresh membrane homogenisation buffer and disrupted using a Polytron homogeniser for 2×20 second bursts keeping the tube in ice at all times. […] The final pellet was re-suspended in 4 ml of membrane homogenisation buffer per cell factory used and the protein content determined. […]
All assays were performed in Corning clear bottomed, white 96-well NBS plates (Fisher). […] (The optimum coating concentrations were determined for each batch of membranes) The beads were pelleted by centrifugation (800×g for 7 minutes at 4° C.), washed once with assay buffer (50 mM HEPES pH 7.4 containing 5 mM magnesium chloride) and finally re-suspended in assay buffer at a bead concentration of 10 mg/ml. […]
Compounds and DK-PGD2 were dissolved in DMSO and diluted in the same solvent to 100× the required final concentration. […] The assay plate was incubated at room temperature for 2 hours and counted on a Wallac Microbeta liquid scintillation counter (1 minute per well).

Compound | IC50 (CRTh2) [nM] | melting point [°C]
C[C@H](Oc1ccc(Cl)cc1-c1cc(F)c(S(=O)(=O)N2CCOCC2)cc1F)C(=O)O [Example 5] | 1.78 | –
CC(C)S(=O)(=O)c1ccc(-c2cc(C(F)(F)F)ccc2OCC(=O)O)cc1F [Example 6, [[3′-Fluoro-4′-[(1-methylethyl)sulfonyl]-5-(trifluoromethyl)[1,1′-biphenyl]-2-yl]oxy]acetic acid] | – | 170 to 171
CCS(=O)(=O)c1ccc(-c2cc(C(F)(F)F)ccc2OCC(=O)O)cc1C(F)(F)F [Example 9, [[4′-(Ethylsulfonyl)-3′,5-bis(trifluoromethyl)[1,1′-biphenyl]-2-yl]oxy]acetic acid] | – | 174 to 175
CCS(=O)(=O)c1ccc(-c2cc(C(F)(F)F)ccc2O[C@@H](C)C(=O)O)cc1C(F)(F)F [Example 10, (2S)-2-[[4′-(Ethylsulfonyl)-3′,5-bis(trifluoromethyl)[1,1′-biphenyl]-2-yl]oxy]propanoic acid] | – | 124 to 126
O=C(O)COc1ccc(Cl)cc1-c1ccc(S(=O)(=O)N2CCOCC2)c(C(F)(F)F)c1 [Example 11] | 35.5 | 208 to 209

Next, values leading:

IC50 (CRTh2) [nM] | melting point [°C] | Compound
– | 148 to 149 | C[C@H](Oc1ccc(Cl)cc1-c1ccc(S(=O)(=O)N2CCOCC2)c(C(F)(F)F)c1)C(=O)O [Example 12, (2S)-2-[[5-Chloro-4′-(4-morpholinylsulfonyl)-3′-(trifluoromethyl)[1,1′-biphenyl]-2-yl]oxy]propanoic acid]
7.08 | 197 to 198 | O=C(O)COc1ccc(Cl)cc1-c1ccc(C(=O)N2CCCC2)c(C(F)(F)F)c1 [Example 13, [[5-Chloro-4′(1-pyrrolidinylcarbonyl)-3′-(trifluoromethyl)[1,1′-biphenyl]-2-yl]oxy]-acetic acid]
– | 164 to 165 | C[C@H](Oc1ccc(Cl)cc1-c1ccc(C(=O)N2CCCC2)c(C(F)(F)F)c1)C(=O)O [Example 14, (2S)-2-[[5-Chloro-4′-(1-pyrrolidinylcarbonyl)-3′-(trifluoromethyl)[1,1′-biphenyl]-2-yl]oxy]propanoic acid]
– | 77 to 79 | C[C@H](Oc1ccc(Cl)cc1-c1ccc(S(C)(=O)=O)c(C(F)(F)F)c1)C(=O)O [Example 16, (2S)-2-[[5-Chloro-4′-(methylsulfonyl)-(3′-trifluoromethyl)-[1,1′-biphenyl]-2-yl]oxy]propanoic acid]
